Measured values published in publication PMC2362731, “Phase I study of Carzelesin (U-80,244) given (4-weekly) by intravenous bolus schedule” (British Journal of Cancer, 1999).

Columns and labels:
solid tumours = assay: Antitumour activity (WHO response criteria); format: in vivo, human; conditions: 51 patients, eight not evaluable
From the text: (§1) Carzelesin (U-80,244, Figure 1A) is a cyclopropylpyrroloindole (CPI) prodrug analogue of CC-1065. […] CPI drugs are a class of compounds with unique DNA interactive properties. These agents fit into the minor groove region of DNA, and the CPI function in the molecule mediates a covalent binding to the N3 position of adenine in A-T rich regions, thus forming DNA adducts in a sequence selective fashion (Hurley et al, 1984; Reynolds et al, 1985). Three new CPIs have now been developed. […] Bizelesin differs from the classical CPI drugs in that it contains two chloromethyl functions, which are both converted (via intramolecular rearrangements) to the CPI alkyl- ating species that interact with DNA. Consequently, this agent is capable of forming DNA interstrand cross-links (Lee et al, 1991). […] Therefore, efforts were directed to modu- late the alkylation rate by the preparation of CPI prodrugs that would require chemical or enzymatic conversion. The activation of Carzelesin is a two-step reaction with hydrolysis of the phenyl- urethane substituent to form the intermediate compound U-76,073, followed by ring closure to form the active product U-76,074 (Figure 1B). […] The concentration of U-76,074 (active metabolite) extended above the lower limit of quantitation (1 ng ml-1) for short periods of time and only at the higher dose levels. […]

[1] = system: bone marrow, kidney, liver and spleen; parameters: method as in EORTC-NDDO, 1992; conditions: ref EORTC-NDDO, 1992; cited from earlier work
[2] = system: tumour cells cultured in vitro; parameters: method as in Li et al, 1992; conditions: compared with adozelesin; ref Li et al, 1992; cited from earlier work
mouse = conditions: equivalent of mouse LD10; ref EORTC-NDDO, 1992; cited from earlier work
[3] = system: granulocytes (ANC), white blood cells (WBC), platelets; assay: Pharmacokinetic-pharmacodynamic relationship of bone marrow toxicity (%decr vs AUC); format: in vivo
From the text: Carzelesin (U-80,244, Figure 1A) is a cyclopropylpyrroloindole (CPI) prodrug analogue of CC-1065. […] CPI drugs are a class of compounds with unique DNA interactive properties. These agents fit into the minor groove region of DNA, and the CPI function in the molecule mediates a covalent binding to the N3 position of adenine in A-T rich regions, thus forming DNA adducts in a sequence selective fashion (Hurley et al, 1984; Reynolds et al, 1985). Three new CPIs have now been developed. […] Bizelesin differs from the classical CPI drugs in that it contains two chloromethyl functions, which are both converted (via intramolecular rearrangements) to the CPI alkyl- ating species that interact with DNA. Consequently, this agent is capable of forming DNA interstrand cross-links (Lee et al, 1991). […] Therefore, efforts were directed to modu- late the alkylation rate by the preparation of CPI prodrugs that would require chemical or enzymatic conversion. The activation of Carzelesin is a two-step reaction with hydrolysis of the phenyl- urethane substituent to form the intermediate compound U-76,073, followed by ring closure to form the active product U-76,074 (Figure 1B). […] This higher efficacy may be related to the pharmacologic features of the compound. […] Phase I study of Carzelesin (U-80,244) given (4-weekly) by intravenous bolus schedule A Awada1, CJA Punt2, MJ Piccart1, O Van Tellingen3, L Van Manen2, J Kerger1, Y Groot4, J Wanders4, J Verweij5 and DJTh Wagener2 1Institut Jules Bordet, Bd de Waterloo 125, 1000 Brussels, Belgium; 2University Hospital, Geert Grooteplein 8, Box 9101, 6500 HB Nijmegen, The Netherlands; 3The Netherlands Cancer Institute (Antoni van Leeuwenhoek Huis), Plesmanlaan 121, 1066 CX Amsterdam, The Netherlands; 4European Organization for Research and Treatment of Cancer - New Drug Development Office, PO Box 7057, Amsterdam, The Netherlands; 5Rotterdam Cancer Institute, Groene Hilledijk 301, 3075 EA Rotterdam, The Netherlands; on behalf of the EORTC Early Clinical Studies Group and EORTC NDDO Summary Carzelesin is a cyclopropylpyrroloindole analogue which acts as a DNA-sequence-specific alkylating agent. In this phase I study, Carzelesin was given as a 4-weekly 10 min IV infusion to 51 patients with advanced solid tumours. Patients received a median of two courses (range 1-5) at one of nine dose levels: […]. According to NCI-CTC criteria, non- haematological toxicities (grade 1/2) included fever, nausea and vomiting, mucositis and anorexia, none of which was clearly dose related. […] The concentration of U-76,074 (active metabolite) extended above the lower limit of quantitation (1 ng ml-1) for short periods of time and only at the higher dose levels. […]

[4] = Ex vivo conversion in blood samples; format: in vitro ADME, human; conditions: if the sample is not immediately cooled in ice-water
From the text: as §1

SMILES: CCN(CC)c1ccc2cc(C(=O)Nc3ccc4[nH]c(C(=O)N5C[C@@H](CCl)c6c5cc(OC(=O)Nc5ccccc5)c5[nH]cc(C)c65)cc4c3)oc2c1 [Carzelesin]
- patients with progressive disease as best overall response (solid tumours): Thirty-four patients
- patients with stable disease as best overall response (solid tumours): nine patients
- organs in which toxicity occurred in preclinical studies [1]: bone marrow, kidney, liver and spleen
- potency against tumour cells cultured in vitro [2]: less potent than adozelesin
- MELD10 (mouse): 840 g m-2
- AUC in other patients with marked toxicity ([3]; human, in vivo): less than 20 ng ml.h-1
- highest AUC observed in this series ([3]; patient at 300 with only very modest toxicity): 43.2 ng·mL/h
- %decr in ANC ([3]; second course, exception patient treated at 300): 82%
- stability in blood sample ex vivo [4]: readily converted to U-76,074 ex vivo
